Measurements reported in patent US8329674B2, “Film forming dental compositions and related methods” (3M Innovative Properties Company, priority 2007, dated 2012).
Where a name gives a salt, the structure may show the parent alone.

Columns and labels:
Assay type in all cases: cell-based
[1] = tested on: Streptococcus mutans culture (ATCC 25175); experiment: Qualitative Biofilm Inhibition Test; design: key: +: refers to a visual assessment that a compound inhibited biofilm formation; −: refers to a visual assessment that either a compound did not inhibit biofilm formation, or that bacteria grew in the culture broth; settings: 1 weight percent compound; visible biofilm on disc after incubation and rinse
Procedure: During the procedure for the Quantitative Biofilm Inhibition Test, each cured disc was visually examined after it was removed from the broth (and rinsed with water) and before it was placed in a test tube containing five milliliters of 1M aqueous sodium hydroxide solution. The presence or absence of visible biofilm on a disc was noted. The Quantitative Biofilm Inhibition Test was carried out using five compounds of the dental composition and eleven comparative compounds, each at a concentration of 1 weight percent. […] In addition, the Qualitative Biofilm Inhibition Test was carried out for each Example and Comparative Example, in which each disc was visually examined before it was placed in the tube containing the aqueous sodium hydroxide solution.

[2] = tested on: Streptococcus mutans culture (ATCC 25175); experiment: Quantitative Biofilm Inhibition Test; settings: 1 weight percent compound, broth with 1.0 weight percent sucrose, approx. twenty hours at 37° C., average OD at 550 nm as percentage of control (100%); for activity at 1 % w/w: Streptococcus mutans, ATCC25175, 20 h, read-out: OD Ratio
Procedure: Compounds of the dental compositions of the invention, and comparative compounds, were evaluated for biofilm inhibition activity. Composite dental restorative (available under the trade designation “FILTEK SUPREME” from 3M ESPE Dental Products, St. Paul, Minn.) was placed in a 15 millimeter by 1 millimeter stainless steel die. […] While the die containing the composite restorative was under compression, the composite was irradiated for two minutes using a Model ACE light source (available from SCHOTT North America, Inc., Auburn, N.Y.). The discs of cured composite restorative were then further cured using a Model UniXS light box (available from Heraeus Kulzer, Inc., Armonk, N.Y.) for 1.5 minutes.
The samples were incubated at 37° C. for approximately twenty hours, after which time the cured discs were removed from the broth and were gently rinsed with water. Each disc was placed in a separate test tube containing five milliliters of 1M aqueous sodium hydroxide solution, and each test tube was then sonicated for two minutes using a model SH1012-40-8 ultrasonic generator (manufactured by Branson Ultrasonics Corp., Danbury, Conn.) for two minutes to dislodge biofilm on the disc. The optical absorbance (optical density) of each aqueous sodium hydroxide solution was then measured at 550 nm using a Model ULTROSPEC III UV-visible spectrophotometer (manufactured by Pharmacia AB, Uppsala, Sweden). For each compound of the dental composition, five discs were separately incubated in broth and were evaluated separately to provide five optical density measurements. The average of the five optical density measurements was then calculated. […] The average optical density of the control or comparative samples was determined as described above. […] The ratio was considered to be proportional to the average amount of biofilm on the five cured discs, i.e., relatively low average optical density ratio was considered to be indicative of inhibition of biofilm formation. The ratio for the control was 100%.
The Quantitative Biofilm Inhibition Test was carried out using five compounds of the dental composition and eleven comparative compounds, each at a concentration of 1 weight percent. […] In addition, the Qualitative Biofilm Inhibition Test was carried out for each Example and Comparative Example, in which each disc was visually examined before it was placed in the tube containing the aqueous sodium hydroxide solution.

[3] = tested on: Streptococcus mutans culture (ATCC 25175); experiment: Biofilm Inhibition Test: concentration of compound to inhibit biofilm formation at varied sucrose; settings: tested at 50 or 150 millimolar
Procedure: Compounds of the dental compositions of the invention, and comparative compounds, were evaluated for biofilm inhibition activity. Composite dental restorative (available under the trade designation “FILTEK SUPREME” from 3M ESPE Dental Products, St. Paul, Minn.) was placed in a 15 millimeter by 1 millimeter stainless steel die. The open ends of the die were then covered with polyester film and the die was subjected to a pressure of 68.95 MPa using a hydraulic press. While the die containing the composite restorative was under compression, the composite was irradiated for two minutes using a Model ACE light source (available from SCHOTT North America, Inc., Auburn, N.Y.). The discs of cured composite restorative were then further cured using a Model UniXS light box (available from Heraeus Kulzer, Inc., Armonk, N.Y.) for 1.5 minutes.
The cured discs of composite restorative were then immersed in ten milliliters of Streptococcus mutans culture (ATCC 25175; 10^6 CFU/mL) prepared in brain heart infusion broth that contained 1.0 weight percent sucrose and 1 weight percent of a compound of the dental composition. The samples were incubated at 37° C. for approximately twenty hours, after which time the cured discs were removed from the broth and were gently rinsed with water. Each disc was placed in a separate test tube containing five milliliters of 1M aqueous sodium hydroxide solution, and each test tube was then sonicated for two minutes using a model SH1012-40-8 ultrasonic generator (manufactured by Branson Ultrasonics Corp., Danbury, Conn.) for two minutes to dislodge biofilm on the disc. The optical absorbance (optical density) of each aqueous sodium hydroxide solution was then measured at 550 nm using a Model ULTROSPEC III UV-visible spectrophotometer (manufactured by Pharmacia AB, Uppsala, Sweden). For each compound of the dental composition, five discs were separately incubated in broth and were evaluated separately to provide five optical density measurements. The average of the five optical density measurements was then calculated. […] The average optical density of the control or comparative samples was determined as described above. The ratio, expressed as a percentage, of the average optical density for each compound sample to the average optical density for a control sample was calculated by dividing the average optical density for each compound sample by the average optical density for a control sample and multiplying the result by one hundred. The ratio was considered to be proportional to the average amount of biofilm on the five cured discs, i.e., relatively low average optical density ratio was considered to be indicative of inhibition of biofilm formation. The ratio for the control was 100%.
During the procedure for the Quantitative Biofilm Inhibition Test, each cured disc was visually examined after it was removed from the broth (and rinsed with water) and before it was placed in a test tube containing five milliliters of 1M aqueous sodium hydroxide solution. The presence or absence of visible biofilm on a disc was noted.
The Biofilm Inhibition Test was carried out, using four compounds of the dental composition, in broth containing 1.0, 2.5, or 5.0 weight percent sucrose and the exemplary compounds of the dental composition at a concentration of either 50 millimolar or 150 millimolar. In Table 2, the millimolar concentration of compound that inhibited biofilm formation is given for each concentration of sucrose. An entry of “n/t” means that the compound was not tested in broth containing the corresponding concentration of sucrose.

Streptococcus mutans = experiment: Bacterial Kill Rate Test
Procedure: Compounds of the dental compositions of the invention were evaluated for extent of bacterial kill in culture. Overnight cultures of Streptococcus mutans in brain heart infusion broth (10^6 CFU/mL) was mixed with a 0.1 weight percent, 0.5 weight percent, or 1.0 weight percent aqueous solution of each compound of the dental composition. After a period of 2, 5, or 10 minutes, 1.0 mL of the mixture was transferred via pipette into a first tube containing 9.0 mL of Letheen broth to provide a 10^−1 dilution. The contents of the tube were mixed using a vortex mixer. A 1.0 mL aliquot of this sample was transferred via pipette into a second tube containing 9.0 mL of Letheen broth to provide a 10^−2 dilution. A 0.1 mL aliquot of each dilution was plated and spread in duplicate on sheep blood agar in Petri dishes, using a “hockey stick” applicator, to provide 10^−2 and 10^−3 dilutions, respectively, on each plate. The plates were incubated at 37° C. for a period of 48 to 72 hours, and then the colony forming units were counted. The CFU counts were compared and the log reduction in the counts were calculated. In Table 3, the bacteria count reduction (log reduction) is the difference between the log of the initial bacteria count and the log of the bacteria count after 2, 5, and 10 minutes.

Row | SMILES | Visual Assessment [1] | OD Ratio [2] [%] | Concentration of Compound to Inhibit Biofilm Formation ([3]; 1 wt% Sucrose) [mM] | Concentration of Compound to Inhibit Biofilm Formation ([3]; 5 wt% Sucrose) [mM] | Bacteria Count Reduction (log reduction) (Streptococcus mutans; 0.1 wt % compound, 2 min.) | Bacteria Count Reduction (log reduction) (Streptococcus mutans; 0.1 wt % compound, 5 min.) | Bacteria Count Reduction (log reduction) (Streptococcus mutans; 0.1 wt % compound, 10 min.) | Bacteria Count Reduction (log reduction) (Streptococcus mutans; 0.5 wt % compound, 2 min.) | Bacteria Count Reduction (log reduction) (Streptococcus mutans; 0.5 wt % compound, 5 min.) | Bacteria Count Reduction (log reduction) (Streptococcus mutans; 0.5 wt % compound, 10 min.) | Bacteria Count Reduction (log reduction) (Streptococcus mutans; 1.0 wt % compound, 2 min.) | Bacteria Count Reduction (log reduction) (Streptococcus mutans; 1.0 wt % compound, 5 min.) | Bacteria Count Reduction (log reduction) (Streptococcus mutans; 1.0 wt % compound, 10 min.) | activity at 1 % w/w [2] [%] | Concentration of Compound to Inhibit Biofilm Formation ([3]; 2.5 wt% Sucrose) [mM]
1 | N[C@H]1C(O)O[C@H](CO)[C@@H](O)[C@@H]1O (stereo partly drawn) [Glucosamine Sulfate, D-glucosamine] | + | 2 | 50 | 150 | 0.95 | 0.75 | 0.87 | 0.78 | 0.80 | 0.81 | 0.95 | 0.89 | 0.97 |  | 
2 | N[C@@H]1C(O)O[C@H](CO)[C@@H](O)[C@@H]1O (stereo partly drawn) [Mannosamine HCl, D-mannosamine] | + |  | 50 | 50 | 1.01 | 0.82 | 0.95 | 0.96 | 0.98 | 1.00 | 0.96 | 1.09 | 0.99 | 0 | 50
3 | N[C@H]1C(O)O[C@H](COP(=O)(O)O)[C@@H](O)[C@@H]1O (stereo partly drawn) [Glucosamine-6-Phosphate, D-glucosamine-6-phosphate] | + |  | 50 |  | 0.99 | 0.88 | 1.06 | 0.95 | 1.11 | 1.23 | 1.12 | 1.41 | 2.09 | 2 | 
4 | N[C@H]1C(O)O[C@H](CO)[C@@H](O)[C@@H]1O (stereo partly drawn) [Glucosamine HCl, D-glucosamine] | + | 0 | 50 | 50 | 1.03 | 0.94 | 0.97 | 0.99 | 0.98 | 0.93 | 0.93 | 0.99 | 0.97 |  | 50
